Several values for one entry are separate records, joined by “and”; a condition that tells them apart may be missing. Identical values can stand only once. Like-named read-outs stand apart in the source and are kept apart here.
Columns and labels:
HSV-1 (F strain) [1] = tested on: HSV-1 (F strain)
Experimental: In Series No. 1 of Example No. 1, monolayer cultures of Vero, RK-13 (rabbit kidney), and WISH (human amnion, Hayflick) cells were used in the experiments of Example No. 1. The cells were grown in Basal Minimal Eagle's Media supplemented with 5% fetal calf serum, 1% glutamine, sodium bicarbonate and antibiotics. Cultures were maintained in a maintenance media that was the same media, except that the maintenance media contained 2% fetal calf serum. An F Strain of HSV-1 was chosen because it is a well-known prototype of HSV-1. This F Strain can be obtained from the American Type Culture Collection (ATCC), 12301 Parklawn Drive, Rockville, Md. 20852, at which it is identified as ATC-VR 733. For studies with HSV-2, a G strain of HSV-2 (ATCC-VR 734) and a 333 strain of HSV-2 were selected. These strains also can be obtained from the ATCC.
Two methods were used to test the drug's effectiveness in the suppression of viral growth. In the pre-inoculation experiments, the drug was added after adsorption of the virus. In the pre-incubation experiments, the drug was added prior to infection of the cell cultures.
Accordingly, the pre-inoculation experiments measured the effect of the drug on a cell that was already infected with the virus. The pre-incubation experiments measured the cell cultures that were treated with the drug prior to the inoculation to determine if these cells then would be permissive or non-permissive to the tested virus. In these experiments, plaque reduction assays provided a quantitative measure of antiviral activity and was deemed to be reliable and objective.
In the pre-incubation experiments, the media was either decanted or gently aspirated from the cultures. After decanting or aspirating, 1 ml of the drug dilution plus maintenance media was added to the cultures. The cultures that served as virus controls or cell controls received 2 ml of maintenance media. After the pre-treatment period, the media was again aspirated and the cell cultures were infected with the virus.
When this occurred, the cultures were fixed and stained with crystal violet. The plaque were then carefully counted under the microscope. By such a counting and careful comparison, percentages of plaque inhibition in the treated cultures were then calculated.
These duplicate wells were incubated for 3 hours. After this time, the maintenance media was aspirated and the cultures were infected. Fresh maintenance media was then added.

Vero cells = tested on: Vero cells
Experimental: To determine the toxicity level of the drug, all three cell lines--RK-13, Vero cells, and WISH cells--were used. In the toxicity experiments, the effect of the drug on the uninfected cell for a range of periods of time was determined. Accordingly, cultures were incubated with and without the drug. The time of exposure was from one to seven hours. A comparison was then made between the drug tested cultures and the control cultures. After each period of incubation, the cells were washed and fresh media was added to the cells. The cell viability was then determined by dividing these cultures and having them grow into new cell cultures.
At the end of the incubation period, the cultures were washed twice with sterile PBS (Dulbecco). Fresh medium was added to each of the cultures. The cultures were then incubated for an additional 24 hours.
Healthy confluent monolayer cell cultures were overlaid with 1 ml of the drug and incubated for 48 hours at 37° C. and then stained. Cell cultures with maintenance media were used as controls.

HSV-1 (McKrae strain) [2] = settings: for No. of Plaques: virus controls 270, 270, 252
Experimental: All cultures were incubated at 37° C. in a 5% CO2 humidified atmosphere. The cultures were stained with crystal violet to aid in counting the plaque.

HSV-1 (F strain) [3] = tested on: HSV-1 (F strain); remark: listed apart in the source
RK-13 cells = settings: 25 mg/ml, 48 hours
HSV-1 (McKrae strain) [4] = settings: for cells exhibiting CPE, area of infection per field: 20 mg/ml
[5] = Exp. 1E, 4 hours pre-incubation, 100 mg/culture
[6] = Exp. 1E, 7 hours pre-incubation, 100 mg/culture
[7] = 5, 2.5, 1.25 mg/culture overnight
[8] = 5, 2.5, 1.25 mg/culture, additional 24 hours in fresh medium
[9] = Patient J, following day, 1% TEAC ointment topical
[10] = Patient J, two days after infusion 3.6 cc
[11] = Patient K, after second infusion
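Wherever duration of spots is given: individual clinical case observations in adult human patients with a history of recurrent HSV type 2 lesions, outcomes described qualitatively as reported symptoms and lesion episodes.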
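Wherever duration of vesicles is given: individual clinical case observations in adult human patients with a history of recurrent HSV type 2 lesions, outcomes described qualitatively as reported symptoms and lesion episodes.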
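Wherever recurrence of lesions or pain is given: individual clinical case observations in adult human patients with a history of recurrent HSV type 2 lesions, outcomes described qualitatively as reported symptoms and lesion episodes.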
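Wherever tiny areas under the skin is given: individual clinical case observations in adult human patients with a history of recurrent HSV type 2 lesions, outcomes described qualitatively as reported symptoms and lesion episodes.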

How did the “% plaque inhibition” value (HSV-1 (F strain) [1]; Exp. 1D, 3 hours before infection, 12.5 mg/culture) turn out when `CC[N+](CC)(CC)CC.[Cl-]` [TEAC, tetraethylammonium chloride] was run?
Its value is 80%.

What about the “% plaque inhibition” value (HSV-1 (F strain) [1]; Exp. 1D, 3 hours before infection, 25.0 mg/culture) of the same molecule?
The value was 79%.

What about the “% plaque inhibition” value (HSV-1 (F strain) [1]; Exp. 1D, 3 hours before infection, 50.0 mg/culture) of the same molecule?
Its value is 82%.

And the “% plaque inhibition” value (HSV-1 (F strain) [1]; Exp. 1D, 3 hours before infection, 100.0 mg/culture)?
Its value is 79%.

And the “% plaque inhibition” value (HSV-1 (F strain) [1]; Exp. 1E, 2 hours pre-incubation, 12.5 mg/culture)?
The value was 18%.

And the “% plaque inhibition” value (HSV-1 (F strain) [1]; Exp. 1E, 2 hours pre-incubation, 25 mg/culture)?
Its value is 17%.

What about the “% plaque inhibition” value (HSV-1 (F strain) [1]; Exp. 1E, 2 hours pre-incubation, 50 mg/culture) of the same molecule?
Its value is 24%.

What about the “% plaque inhibition” value (HSV-1 (F strain) [1]; Exp. 1E, 2 hours pre-incubation, 100 mg/culture) of the same molecule?
The value was 68%.

And the “% plaque inhibition” value (HSV-1 (F strain) [1]; Exp. 1E, 4 hours pre-incubation, 12.5 mg/culture)?
Its value is “less than 20%”.

And the “% plaque inhibition” value (HSV-1 (F strain) [1]; Exp. 1E, 4 hours pre-incubation, 50 mg/culture)?
The value was 63%.

And the “% plaque inhibition” value (HSV-1 (F strain) [1]; [5])?
The value was 100%.

And the “cell layer appearance (thin)” value (HSV-1 (F strain) [1]; [5])?
The value was “thin”.

And the “% plaque inhibition” value (HSV-1 (F strain) [1]; Exp. 1E, 7 hours pre-incubation, 12.5 mg/culture)?
Its value is 76%.

What about the “% plaque inhibition” value (HSV-1 (F strain) [1]; [6]) of the same molecule?
Its value is 100%.

And the “cell layer appearance (thin)” value (HSV-1 (F strain) [1]; [6])?
The value was “thin”.

And the “permissiveness of cells to virus” value (HSV-1 (F strain) [1]; added before viral inoculation, summary)?
Its value is “rendered the cells non-permissive to the virus and no plaque formed”.

And the toxicity (Vero cells; 25 mg/ml, 48 hours)?
Its toxicity is “slight toxicity”.

What about the “change in morphology of cells” value (Vero cells; [7]) of the same molecule?
The value was “No change in the morphology of the cells”.

And the “growth or general appearance vs untreated” value (Vero cells; [8])?
The value was “no apparent difference in the growth or general appearance”.

What about the enhancement of plaque (HSV-1 (McKrae strain) [2]; 12.5 mg/ml) of the same molecule?
Its enhancement of plaque is “apparent enhancement of plaque”.

What about the “No. of Plaques” value (HSV-1 (McKrae strain) [2]; 12.5 mg/ml) of the same molecule?
Its value is 300.

And the monolayer appearance (HSV-1 (McKrae strain) [2]; 25 mg/ml)?
The monolayer appearance was “thinned out appearance”.

And the “No. of Plaques” value (HSV-1 (McKrae strain) [2]; 25 mg/ml)?
The value was 0.

And the plaque inhibition (HSV-1 (McKrae strain) [2]; 12.5, 6.25, 3.125 mg/ml)?
Its plaque inhibition is “not significantly effective in achieving plaque inhibition”.

And the average plaque number (HSV-1 (F strain) [3]; 2.5 mg/ml (1 ml plus 4 ml media), Vero, control 488.5)?
Its average plaque number is 75.5 plaque.

And the “size of the plaque vs control” value (HSV-1 (F strain) [3]; 2.5 mg/ml, Vero)?
The value was “appreciably smaller”.

And the “suppression of viral growth” value (HSV-1 (F strain) [3]; summary of first series)?
The value was “not only by the reduced number of plaque, but also by their reduced size”.

And the “change in morphology of cells” value (WISH cells; [7])?
The value was “No change in the morphology of the cells”.

What about the “growth or general appearance vs untreated” value (WISH cells; [8]) of the same molecule?
Its value is “no apparent difference in the growth or general appearance”.

What about the toxicity (RK-13 cells) of the same molecule?
The toxicity was “toxicity”.

And the “cells exhibiting CPE, area of infection per field” value (HSV-1 (McKrae strain) [4]; 6 hours P.I., virus control 1/4)?
The value was 1/6.

And the “cells exhibiting CPE, area of infection per field” value (HSV-1 (McKrae strain) [4]; 30 hours P.I., virus control 1/2)?
The value was “scattered”.

What about the “No. of cells with virus particles” value (HSV-1 (McKrae strain) [4]; 6 hours P.I., 100 cells examined, control 0) of the same molecule?
Its value is 0.

What about the “No. of cells with internuclear dense bodies” value (HSV-1 (McKrae strain) [4]; 6 hours P.I., 100 cells examined, control 14) of the same molecule?
The value was 12.

And the Total % (HSV-1 (McKrae strain) [4]; 6 hours P.I., 100 cells examined, control 14%)?
Its Total % is 12%.

And the cell membrane appearance (HSV-1 (McKrae strain) [4]; 6 hours post infection)?
The cell membrane appearance was “unusually extended and wavy”.

What about the “No. of cells with internuclear dense bodies” value (HSV-1 (McKrae strain) [4]; 24 hours P.I., 300 cells examined, control 0 of 50) of the same molecule?
Its value is 12.

And the “No. of cells with virus particles” value (HSV-1 (McKrae strain) [4]; 24 hours P.I., 300 cells examined, control 50 of 50)?
The value was 8.

What about the Total % (HSV-1 (McKrae strain) [4]; 24 hours P.I., 300 cells examined, control 100%) of the same molecule?
The Total % was 6%.

And the nucleocapsid size (HSV-1 (McKrae strain) [4]; 24 hours post infection)?
Its nucleocapsid size is “about 99.6 A”.

What about the nucleocapsids in cytoplasm (HSV-1 (McKrae strain) [4]; 24 hours post infection) of the same molecule?
Its nucleocapsids in cytoplasm is “coreless nucleocapsids in paracrystalline arrays”.

What about the “virus particles in inter-cellular space” value (HSV-1 (McKrae strain) [4]; 24 hours post infection) of the same molecule?
Its value is “some abnormal virus particles were detected”.

What about the cell layer appearance (vaccinia) of the same molecule?
Its cell layer appearance is “thin”.

What about the plaque formation (vaccinia) of the same molecule?
The plaque formation was “did not have any plaque”.

What about the “tiny areas under the skin” value (HSV type 2; Patient A, about two weeks after third infusion 3.4 cc) of the same molecule?
Its value is “disappeared in about a day”.

And the duration of vesicles (HSV type 2; Patient A, after first infusion)?
The duration of vesicles was “disappeared in two to three days without pain”.

And the duration of spots (HSV type 2; Patient A, after third infusion)?
Its duration of spots is 24 h.

What about the “recurrence of lesions or pain” value (HSV type 2; Patient A, eighteen months after initial exam) of the same molecule?
Its value is “no further lesions or pain”.

What about the sciatic pain (HSV type 2; Patient A, first infusion 2.8 cc of 100 mg/cc) of the same molecule?
The sciatic pain was “cessation of sciatic pain”.

What about the sciatic nerve pain (HSV type 2; Patient A, second infusion 3.2 cc) of the same molecule?
Its sciatic nerve pain is “the sciatic nerve pain disappeared during the infusion”.

And the itching and tingling (HSV type 2; Patient D)?
Its itching and tingling is “itching and tingling disappeared”.

And the lesions (HSV type 2; Patient D, two days later)?
Its lesions is “all lesions were improving”.

And the lesions (HSV type 2; Patient E, 5 days after third infusion 5 cc)?
The lesions was “all lesions had cleared up”.

And the prodome and lesions (HSV type 2; Patient E, after first infusion)?
The prodome and lesions was “massive prodome with large weeping lesions”.

What about the “pinpoint lesions breaking out” value (HSV type 2; Patient E, after third infusion) of the same molecule?
Its value is 5-6 pinpoint lesions.

What about the prodome and lesions (HSV type 2; Patient E, next day after second infusion) of the same molecule?
Its prodome and lesions is “no prodome and no lesions”.

And the breakout (HSV type 2; Patient E, second day after second infusion)?
The breakout was “another breakout was occurring”.

And the lesions (HSV type 2; Patient E, two days after first infusion)?
Its lesions is “the lesions had started to crust”.

And the general condition (HSV type 2; Patient F, about 3 weeks later)?
Its general condition is “completely cleared up”.

And the lesion (HSV type 2; Patient F, next day, 3.8 cc)?
The lesion was “improved”.

What about the new lesions (HSV type 2; Patient F, nine days after second infusion) of the same molecule?
Its new lesions is “on the other side lesions had developed”.

What about the “duration of subsequent lesions” value (HSV type 2; Patient F, subsequent follow up) of the same molecule?
Its value is 12 days and 7 days.

And the crusting of lesions (HSV type 2; Patient G, 4.3 cc)?
Its crusting of lesions is “never crusted”.

And the psoriasis (HSV type 2; Patient G, 4.3 cc)?
Its psoriasis is “psoriasis improved”.

What about the “time to disappearance of lesions” value (HSV type 2; Patient G, 4.3 cc) of the same molecule?
Its value is no more than 48 h.

And the lesions (HSV type 2; Patient G, next day, 4.3 cc)?
Its lesions is “the lesions improving”.

And the setback (HSV type 2; Patient H, 6 days later)?
Its setback is “setback 6 days later when the condition became a visual attack”.

And the improvement (HSV type 2; Patient H, following day, 4.6 cc (6.0 mg/kg))?
The improvement was “striking improvement”.

What about the further problems (HSV type 2; Patient H, six months after treatment, besides 2 minor incidents of red spots and some aura) of the same molecule?
The further problems was “no further problems”.

What about the incidents since treatment (HSV type 2; Patient J, 12 months later, ointment applied) of the same molecule?
The incidents since treatment was “very few incidents since treatment”.

What about the new vesicles (HSV type 2; [9]) of the same molecule?
Its new vesicles is 2 vesicles.

And the tingling and redness (HSV type 2; [9])?
Its tingling and redness is “the tingling and redness had gone”.

And the duration of lesion (HSV type 2; Patient J, later attack, 1% TEAC ointment topical)?
Its duration of lesion is 3 days.

What about the lesions (HSV type 2; Patient J, three days later, 1% TEAC ointment topical) of the same molecule?
Its lesions is “all the lesions had dried up”.

And the lesions (HSV type 2; [10])?
The lesions was “the lesions were drying”.

And the pain (HSV type 2; [10])?
Its pain is “the pain had disappeared”.

What about the duration of attacks (HSV type 2; [11]) of the same molecule?
Its duration of attacks is 2 to 3 days.

And the severity of attacks (HSV type 2; [11])?
Its severity of attacks is “milder severity”.

What about the expected attack (HSV type 2; Patient K, six weeks after second infusion 3.4 cc) of the same molecule?
The expected attack was “the attack had not occurred”.

Source: patent US5686448A (priority 1995, dated 1997)
